Measurements: patent US20120156771A1, “FUNCTIONAL DISRUPTION OF AN IMMUNOGLOBULIN GENE IN AN AVIAN EMBRYONIC STEM CELL” (Origen Therapeutics, Inc., priority 2002, published 2012)

Tested on: chicken embryonic stem cells
Assay: Titration kill curve: morphology of cES cells under puromycin or neomycin selection
Format: cell-based
Parameters: key to Morphology of cES cells: ES: ES cells are present.; diff: ES cells are differentiated.; gone: no morphologically recognizable cells are present
Procedure: In a preferred embodiment, the concentration of puromycin required for selecting transfected cells is calculated as a titration kill curve. Titration kill curves for chicken embryonic stem cells are established by exposing cells in culture to puromycin concentrations varying from 0.0 to 1.0 μg/ml for 10 days (Table 7) and neomycin concentrations varying from 0.0 to 200 μg/ml (Table 8). The medium is changed every 2 days and fresh puromycin or neomycin is added. […] Puromycin concentrations of 0.3-1.0 μg/ml are used for selection of the transfected cultures. Neomycin concentrations over 40 μg/ml eliminated all cES cells within 7 days (Table 8).

COc1ccc(C[C@H](N)C(=O)N[C@H]2[C@@H](O)[C@H](n3cnc4c(N(C)C)ncnc43)O[C@@H]2CO)cc1 [puromycin]
diff: Morphology of cES cells (puromycin 0.25 μg/ml, day 6 under selection) | Morphology of cES cells (puromycin 0.25 μg/ml, day 7 under selection) | Morphology of cES cells (puromycin 0.3 μg/ml, day 3 under selection) | Morphology of cES cells (puromycin 0.4 μg/ml, day 2 under selection) | Morphology of cES cells (puromycin 0.5 μg/ml, day 1 under selection) | Morphology of cES cells (puromycin 0.6 μg/ml, day 1 under selection) | Morphology of cES cells (puromycin 0.7 μg/ml, day 1 under selection)
gone: Morphology of cES cells (puromycin 0.3 μg/ml, day 6 under selection) | Morphology of cES cells (puromycin 0.3 μg/ml, day 7 under selection) | Morphology of cES cells (puromycin 0.3 μg/ml, day 8 under selection) | Morphology of cES cells (puromycin 0.3 μg/ml, day 9 under selection) | Morphology of cES cells (puromycin 0.3 μg/ml, day 10 under selection) | Morphology of cES cells (puromycin 0.4 μg/ml, day 3 under selection) | Morphology of cES cells (puromycin 0.4 μg/ml, day 4 under selection) | Morphology of cES cells (puromycin 0.4 μg/ml, day 5 under selection) | Morphology of cES cells (puromycin 0.4 μg/ml, day 6 under selection) | Morphology of cES cells (puromycin 0.4 μg/ml, day 7 under selection) | Morphology of cES cells (puromycin 0.4 μg/ml, day 8 under selection) | Morphology of cES cells (puromycin 0.4 μg/ml, day 9 under selection) | Morphology of cES cells (puromycin 0.4 μg/ml, day 10 under selection) | Morphology of cES cells (puromycin 0.5 μg/ml, day 2 under selection) | Morphology of cES cells (puromycin 0.5 μg/ml, day 3 under selection) | Morphology of cES cells (puromycin 0.5 μg/ml, day 4 under selection) | Morphology of cES cells (puromycin 0.5 μg/ml, day 5 under selection) | Morphology of cES cells (puromycin 0.5 μg/ml, day 6 under selection) | Morphology of cES cells (puromycin 0.5 μg/ml, day 7 under selection) | Morphology of cES cells (puromycin 0.5 μg/ml, day 8 under selection) | Morphology of cES cells (puromycin 0.5 μg/ml, day 9 under selection) | Morphology of cES cells (puromycin 0.5 μg/ml, day 10 under selection) | Morphology of cES cells (puromycin 0.6 μg/ml, day 2 under selection) | Morphology of cES cells (puromycin 0.6 μg/ml, day 3 under selection) | Morphology of cES cells (puromycin 0.6 μg/ml, day 4 under selection) | Morphology of cES cells (puromycin 0.6 μg/ml, day 5 under selection) | Morphology of cES cells (puromycin 0.6 μg/ml, day 6 under selection) | Morphology of cES cells (puromycin 0.6 μg/ml, day 7 under selection) | Morphology of cES cells (puromycin 0.6 μg/ml, day 8 under selection) | Morphology of cES cells (puromycin 0.6 μg/ml, day 9 under selection) | Morphology of cES cells (puromycin 0.6 μg/ml, day 10 under selection) | Morphology of cES cells (puromycin 0.7 μg/ml, day 2 under selection) | Morphology of cES cells (puromycin 0.7 μg/ml, day 3 under selection) | Morphology of cES cells (puromycin 0.7 μg/ml, day 4 under selection) | Morphology of cES cells (puromycin 0.7 μg/ml, day 5 under selection) | Morphology of cES cells (puromycin 0.7 μg/ml, day 6 under selection) | Morphology of cES cells (puromycin 0.7 μg/ml, day 7 under selection) | Morphology of cES cells (puromycin 0.7 μg/ml, day 8 under selection) | Morphology of cES cells (puromycin 0.7 μg/ml, day 9 under selection) | Morphology of cES cells (puromycin 0.7 μg/ml, day 10 under selection) | Morphology of cES cells (puromycin 0.8 μg/ml, day 1 under selection) | Morphology of cES cells (puromycin 0.8 μg/ml, day 2 under selection) | Morphology of cES cells (puromycin 0.8 μg/ml, day 3 under selection) | Morphology of cES cells (puromycin 0.8 μg/ml, day 4 under selection) | Morphology of cES cells (puromycin 0.8 μg/ml, day 5 under selection) | Morphology of cES cells (puromycin 0.8 μg/ml, day 6 under selection) | Morphology of cES cells (puromycin 0.8 μg/ml, day 7 under selection) | Morphology of cES cells (puromycin 0.8 μg/ml, day 8 under selection) | Morphology of cES cells (puromycin 0.8 μg/ml, day 9 under selection) | Morphology of cES cells (puromycin 0.8 μg/ml, day 10 under selection)
absent from all wells: Presence of ES cells in wells (0.3 μg/ml puromycin, after 3 changes of medium with fresh puromycin over a six day period)
ES: Morphology of cES cells (puromycin 0.1 μg/ml, day 1 under selection) | Morphology of cES cells (puromycin 0.1 μg/ml, day 2 under selection) | Morphology of cES cells (puromycin 0.1 μg/ml, day 3 under selection) | Morphology of cES cells (puromycin 0.1 μg/ml, day 4 under selection) | Morphology of cES cells (puromycin 0.1 μg/ml, day 5 under selection) | Morphology of cES cells (puromycin 0.1 μg/ml, day 6 under selection) | Morphology of cES cells (puromycin 0.1 μg/ml, day 7 under selection) | Morphology of cES cells (puromycin 0.1 μg/ml, day 8 under selection) | Morphology of cES cells (puromycin 0.1 μg/ml, day 9 under selection) | Morphology of cES cells (puromycin 0.1 μg/ml, day 10 under selection) | Morphology of cES cells (puromycin 0.2 μg/ml, day 1 under selection) | Morphology of cES cells (puromycin 0.2 μg/ml, day 2 under selection) | Morphology of cES cells (puromycin 0.2 μg/ml, day 3 under selection) | Morphology of cES cells (puromycin 0.2 μg/ml, day 4 under selection) | Morphology of cES cells (puromycin 0.2 μg/ml, day 5 under selection) | Morphology of cES cells (puromycin 0.2 μg/ml, day 6 under selection) | Morphology of cES cells (puromycin 0.2 μg/ml, day 7 under selection) | Morphology of cES cells (puromycin 0.2 μg/ml, day 8 under selection) | Morphology of cES cells (puromycin 0.2 μg/ml, day 9 under selection) | Morphology of cES cells (puromycin 0.2 μg/ml, day 10 under selection) | Morphology of cES cells (puromycin 0.25 μg/ml, day 1 under selection) | Morphology of cES cells (puromycin 0.25 μg/ml, day 2 under selection) | Morphology of cES cells (puromycin 0.25 μg/ml, day 3 under selection) | Morphology of cES cells (puromycin 0.25 μg/ml, day 4 under selection) | Morphology of cES cells (puromycin 0.25 μg/ml, day 5 under selection) | Morphology of cES cells (puromycin 0.3 μg/ml, day 1 under selection) | Morphology of cES cells (puromycin 0.3 μg/ml, day 2 under selection) | Morphology of cES cells (puromycin 0.4 μg/ml, day 1 under selection)
